Measured values from ChEMBL document CHEMBL1201862, “PubChem BioAssay data set” (2004).
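Step 1: Grow cells in 96-well plates. Step 2: Expose to compound for 48 hours at 5 concentrations. Step 3: Interpolate endpoints linearly; if unreached, use highest concentration. Here, GI50 denotes the concentration required for 50% inhibition of growth.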 Calls of active or inactive are those of the source. Cut-off read from the data, not from the text of the source: active = GI50 up to about 1.1 µM and inactive = higher.

Columns and labels:
Experiment in all cases: inhibition of tumour cell growth, NCI panel, 48 h
[1] = test system: ACHN
[2] = test system: CAKI-1
[3] = test system: CCRF-CEM
[4] = test system: HCC 2998
[5] = test system: HCT-15
[6] = test system: HL-60
[7] = test system: KM-20L2
[8] = test system: Malme-3M
[9] = test system: NCI-H23
[10] = test system: RXF 393
[11] = test system: SF-539
[12] = test system: SK-MEL-5
[13] = test system: SN12C
[14] = test system: SR
[15] = test system: NCI-H460
[16] = test system: DU-145
[17] = test system: Hs-578T
[18] = test system: MDA-MB-231
[19] = test system: MDA-N
[20] = test system: T47D

Structure (SMILES)	GI50 [1]	GI50 [2]	GI50 [3]	GI50 [4]	GI50 [5]	GI50 [6]	GI50 [7]	GI50 [8]	GI50 [9]	GI50 [10]	GI50 [11]	GI50 [12]	GI50 [13]	GI50 [14]	GI50 [15]	GI50 [16]	GI50 [17]	GI50 [18]	GI50 [19]	GI50 [20]
COc1cc(/C=C(\NC(=O)c2ccccc2)c2nc3cncnc3[nH]2)cc(OC)c1OC	> 100 µM (inactive)	> 100 µM (inactive)	> 100 µM (inactive)	> 100 µM (inactive)	> 100 µM	> 100 µM (inactive)	> 100 µM (inactive)	> 100 µM (inactive)	> 100 µM (inactive)	> 100 µM (inactive)	> 100 µM (inactive)	> 100 µM (inactive)	> 100 µM (inactive)	> 100 µM (inactive)	–	–	–	–	–	–
O=C(N[C@@H]1C=CCC[C@@H]1c1ccccc1)OCc1ccccc1	24 µM (inactive)	12.2 µM (inactive)	16.4 µM (inactive)	20.6 µM (inactive)	17.9 µM	11.6 µM (inactive)	20 µM (inactive)	19.3 µM (inactive)	22.8 µM (inactive)	20.3 µM (inactive)	18.9 µM (inactive)	17.9 µM (inactive)	16.9 µM (inactive)	15.1 µM (inactive)	17.9 µM (inactive)	–	–	–	–	–
Nc1nc(Cl)cc(NCCCCCCCCCCNc2cc(Cl)nc(N)n2)n1	< 0.01 µM (active)	25.6 µM (inactive)	18.9 µM (inactive)	22.8 µM (inactive)	3.55 µM	2.34 µM (inactive)	5.21 µM (inactive)	–	0.415 µM (active)	13.9 µM (inactive)	22.1 µM (inactive)	0.0982 µM (active)	71.9 µM (inactive)	2.62 µM (inactive)	5.96 µM (inactive)	–	–	–	–	–
CC(C)COC(=O)c1ccc(/N=C\c2ccc(/C=N/c3ccc(C(=O)OCC(C)C)cc3)cc2)cc1	> 100 µM (inactive)	> 100 µM (inactive)	–	> 100 µM (inactive)	> 100 µM	> 100 µM (inactive)	> 100 µM (inactive)	> 100 µM (inactive)	96.6 µM (inactive)	–	> 100 µM (inactive)	–	> 100 µM (inactive)	> 100 µM (inactive)	> 100 µM (inactive)	–	–	–	–	–
C[C@@]1(Cc2ccccc2)C(=O)N2[C@@H](CO)C(c3ccccc3)O[C@]2(C)c2ccccc21 (stereo not given in full)	> 100 µM (inactive)	26.2 µM (inactive)	81.1 µM (inactive)	–	> 100 µM	> 100 µM (inactive)	> 100 µM (inactive)	–	> 100 µM (inactive)	> 100 µM (inactive)	> 100 µM (inactive)	> 100 µM (inactive)	–	> 100 µM (inactive)	–	–	–	–	–	–
NCCNC(=O)c1cccc2cc3ccccc3nc12	1.02 µM (active)	3.15 µM (inactive)	–	2.65 µM (inactive)	1.91 µM	–	1.61 µM (inactive)	0.495 µM (active)	2.62 µM (inactive)	2.31 µM (inactive)	4.35 µM (inactive)	2.23 µM (inactive)	2.45 µM (inactive)	0.439 µM (active)	–	–	–	–	–	–
CC(=O)OCC(=O)[C@@]1(O)CC[C@H]2[C@@H]3C[C@H](C)C4=CC(=O)C=C[C@]4(C)[C@@]3(F)[C@@H](O)C[C@@]21C	> 100 µM (inactive)	> 100 µM (inactive)	5.33 µM (inactive)	> 100 µM (inactive)	> 100 µM	> 100 µM (inactive)	> 100 µM (inactive)	> 100 µM (inactive)	> 100 µM (inactive)	> 100 µM (inactive)	> 100 µM (inactive)	> 100 µM (inactive)	–	96.4 µM (inactive)	> 100 µM (inactive)	–	–	–	–	–
C[C@H](CCC1SC1(C)C)C1CCC2(C)C3=C(CC[C@]12C)[C@@]1(C)CC[C@H](O)C(C)(C)C1CC3 (stereo not given in full)	61 µM (inactive)	> 100 µM (inactive)	> 100 µM (inactive)	> 100 µM (inactive)	> 100 µM	> 100 µM (inactive)	> 100 µM (inactive)	> 100 µM (inactive)	> 100 µM (inactive)	> 100 µM (inactive)	–	> 100 µM (inactive)	> 100 µM (inactive)	> 100 µM (inactive)	> 100 µM (inactive)	–	–	–	–	–
Cc1c(C(=O)/C=C/c2cccc3ccccc23)[n+]([O-])c2ccccc2[n+]1[O-]	15.3 µM (inactive)	7.85 µM (inactive)	3.2 µM (inactive)	16.8 µM (inactive)	12.7 µM	7.41 µM (inactive)	14.6 µM (inactive)	18.6 µM (inactive)	12.8 µM (inactive)	10.1 µM (inactive)	11.4 µM (inactive)	–	14.1 µM (inactive)	12.7 µM (inactive)	15.3 µM (inactive)	–	–	–	–	–
CC(C)Cc1ccc(C(C)/C=C2\CCC(CN(C)C)C2=O)cc1 (stereo not given)	19.4 µM (inactive)	17.5 µM (inactive)	3.92 µM (inactive)	16.8 µM (inactive)	9.18 µM	5.61 µM (inactive)	24.3 µM (inactive)	17 µM (inactive)	12.6 µM (inactive)	20.1 µM (inactive)	16.5 µM (inactive)	11.7 µM (inactive)	10 µM (inactive)	3.2 µM (inactive)	20 µM (inactive)	11.4 µM (inactive)	2.74 µM (inactive)	2.28 µM (inactive)	10.2 µM (inactive)	–
O=C(CCc1ccccc1)On1nnc2ccccc2c1=O	> 100 µM (inactive)	30.8 µM (inactive)	> 100 µM (inactive)	> 100 µM (inactive)	> 100 µM	> 100 µM (inactive)	> 100 µM (inactive)	> 100 µM (inactive)	> 100 µM (inactive)	> 100 µM (inactive)	> 100 µM (inactive)	> 100 µM (inactive)	> 100 µM (inactive)	> 100 µM (inactive)	> 100 µM (inactive)	–	–	–	–	–
C/C(=N\NS(=O)(=O)c1ccc(C)cc1)c1ccc[n+]([O-])n1	> 100 µM (inactive)	25.1 µM (inactive)	25.2 µM (inactive)	> 100 µM (inactive)	> 100 µM	26.9 µM (inactive)	> 100 µM (inactive)	–	> 100 µM (inactive)	–	> 100 µM (inactive)	> 100 µM (inactive)	> 100 µM (inactive)	36.7 µM (inactive)	> 100 µM (inactive)	–	–	–	–	–
O=C(/C=C/c1ccccc1O)c1ccc([N+](=O)[O-])cc1	11.9 µM (inactive)	18.5 µM (inactive)	15.8 µM (inactive)	16.5 µM (inactive)	17 µM	16.4 µM (inactive)	18.8 µM (inactive)	44 µM (inactive)	11.3 µM (inactive)	11 µM (inactive)	15.4 µM (inactive)	20.1 µM (inactive)	15.5 µM (inactive)	19.4 µM (inactive)	22.7 µM (inactive)	–	–	–	–	–
COC1C(OC(=O)/C=C/C=C/C=C/C=C\C(=O)O)CCC2(CO2)C1C1(C)OC1CC=C(C)C (stereo not given)	> 100 µM (inactive)	> 100 µM (inactive)	> 100 µM (inactive)	> 100 µM (inactive)	> 100 µM	–	> 100 µM (inactive)	131 µM (inactive)	> 100 µM (inactive)	> 100 µM (inactive)	> 100 µM (inactive)	> 100 µM (inactive)	> 100 µM (inactive)	> 100 µM (inactive)	> 100 µM (inactive)	> 100 µM (inactive)	> 100 µM (inactive)	> 100 µM (inactive)	–	> 100 µM (inactive)
N#Cc1cccnc1Cl	> 100 µM (inactive)	> 100 µM (inactive)	> 100 µM (inactive)	> 100 µM (inactive)	> 100 µM	> 100 µM (inactive)	> 100 µM (inactive)	> 100 µM (inactive)	> 100 µM (inactive)	> 100 µM (inactive)	> 100 µM (inactive)	> 100 µM (inactive)	> 100 µM (inactive)	> 100 µM (inactive)	> 100 µM (inactive)	–	–	–	–	–
